From PubChem BioAssay (NCI)
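96-well plates; 48 h exposure; 5 concentrations. Endpoints by linear interpolation between flanking doses. Not reached: highest tested concentration assigned. TGI denotes the concentration required for complete inhibition of growth.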

Assays:
Test in all cases: NCI tumour cell line growth inhibition, 48 h
HCC-2998 colon = test system: HCC-2998 colon
OVCAR-3 ovarian = test system: OVCAR-3 ovarian
A498 renal = test system: A498 renal
HCT-116 colon = test system: HCT-116 colon
COLO 205 colon = test system: COLO 205 colon
M14 melanoma = test system: M14 melanoma
T-47D breast = test system: T-47D breast
OVCAR-8 ovarian = test system: OVCAR-8 ovarian
HT29 colon = test system: HT29 colon
SF-268 CNS = test system: SF-268 CNS
UO-31 renal = test system: UO-31 renal
SK-MEL-28 melanoma = test system: SK-MEL-28 melanoma
UACC-257 melanoma = test system: UACC-257 melanoma
SF-539 CNS = test system: SF-539 CNS
A549 NSCLC = test system: A549 NSCLC
SNB-19 CNS = test system: SNB-19 CNS
ACHN renal = test system: ACHN renal
LOX IMVI melanoma = test system: LOX IMVI melanoma
SR leukemia = test system: SR leukemia
NCI-H226 lung = test system: NCI-H226 lung
786-0 renal = test system: 786-0 renal
HL-60(TB) leukemia = test system: HL-60(TB) leukemia
U251 CNS = test system: U251 CNS
MDA-N = test system: MDA-N
SN12C renal = test system: SN12C renal
BT-549 breast = test system: BT-549 breast
MDA-MB-435 = test system: MDA-MB-435
SF-295 CNS = test system: SF-295 CNS
K-562 leukemia = test system: K-562 leukemia
NCI-H522 lung = test system: NCI-H522 lung
MCF7 breast = test system: MCF7 breast
MDA-MB-231 breast = test system: MDA-MB-231 breast
HS 578T breast = test system: HS 578T breast
TK-10 renal = test system: TK-10 renal
NCI-H23 lung = test system: NCI-H23 lung
NCI/ADR-RES ovarian = test system: NCI/ADR-RES ovarian
CAKI-1 renal = test system: CAKI-1 renal
HOP-62 NSCLC = test system: HOP-62 NSCLC
SK-OV-3 ovarian = test system: SK-OV-3 ovarian
HCT-15 colon = test system: HCT-15 colon
MALME-3M melanoma = test system: MALME-3M melanoma
RPMI-8226 leukemia = test system: RPMI-8226 leukemia
HOP-92 NSCLC = test system: HOP-92 NSCLC
CCRF-CEM leukemia = test system: CCRF-CEM leukemia
SW-620 colon = test system: SW-620 colon
PC-3 prostate = test system: PC-3 prostate
SK-MEL-5 melanoma = test system: SK-MEL-5 melanoma
KM12 colon = test system: KM12 colon
MOLT-4 leukemia = test system: MOLT-4 leukemia
NCI-H460 lung = test system: NCI-H460 lung
EKVX NSCLC = test system: EKVX NSCLC
DU-145 prostate = test system: DU-145 prostate
IGROV1 ovarian = test system: IGROV1 ovarian
OVCAR-4 ovarian = test system: OVCAR-4 ovarian
SK-MEL-2 melanoma = test system: SK-MEL-2 melanoma
OVCAR-5 ovarian = test system: OVCAR-5 ovarian
SNB-75 CNS = test system: SNB-75 CNS
UACC-62 melanoma = test system: UACC-62 melanoma
RXF 393 renal = test system: RXF 393 renal

For `CNc1ccc(S(=O)Nc2ccc(OC)cc2)cc1` (stereo not given), the TGI (HCC-2998 colon) was > 100 µM, the TGI (OVCAR-3 ovarian) was > 100 µM and the TGI (A498 renal) was > 100 µM. For the same compound, the TGI (HCT-116 colon) was > 100 µM, the TGI (COLO 205 colon) was 91.4 µM and the TGI (M14 melanoma) was > 100 µM. The TGI (T-47D breast) was > 100 µM, the TGI (OVCAR-8 ovarian) was > 100 µM and the TGI (HT29 colon) was > 100 µM. For the same compound, the TGI (SF-268 CNS) was > 100 µM, the TGI (UO-31 renal) was 34.8 µM and the TGI (SK-MEL-28 melanoma) was > 100 µM. For the same compound, the TGI (UACC-257 melanoma) was > 100 µM, the TGI (SF-539 CNS) was > 100 µM and the TGI (A549 NSCLC) was > 100 µM. The TGI (SNB-19 CNS) was > 100 µM, the TGI (ACHN renal) was > 100 µM and the TGI (LOX IMVI melanoma) was > 100 µM. For the same compound, the TGI (SR leukemia) was > 100 µM, the TGI (NCI-H226 lung) was > 100 µM and the TGI (786-0 renal) was > 100 µM. For the same compound, the TGI (HL-60(TB) leukemia) was > 100 µM, the TGI (U251 CNS) was > 100 µM and the TGI (MDA-N) was > 100 µM. The TGI (SN12C renal) was > 100 µM, the TGI (BT-549 breast) was > 100 µM and the TGI (MDA-MB-435) was 70.1 µM. For the same compound, the TGI (SF-295 CNS) was > 100 µM, the TGI (K-562 leukemia) was > 100 µM and the TGI (NCI-H522 lung) was > 100 µM. The TGI (MCF7 breast) was > 100 µM, the TGI (MDA-MB-231 breast) was > 100 µM and the TGI (HS 578T breast) was > 100 µM. The TGI (TK-10 renal) was > 100 µM, the TGI (NCI-H23 lung) was > 100 µM and the TGI (NCI/ADR-RES ovarian) was > 100 µM. The TGI (CAKI-1 renal) was > 100 µM, the TGI (HOP-62 NSCLC) was > 100 µM and the TGI (SK-OV-3 ovarian) was > 100 µM. For the same compound, the TGI (HCT-15 colon) was > 100 µM, the TGI (MALME-3M melanoma) was > 100 µM and the TGI (RPMI-8226 leukemia) was > 100 µM. For the same compound, the TGI (HOP-92 NSCLC) was > 100 µM, the TGI (CCRF-CEM leukemia) was > 100 µM and the TGI (SW-620 colon) was > 100 µM. For the same compound, the TGI (PC-3 prostate) was > 100 µM, the TGI (SK-MEL-5 melanoma) was > 100 µM and the TGI (KM12 colon) was 22.2 µM. For the same compound, the TGI (MOLT-4 leukemia) was > 100 µM, the TGI (NCI-H460 lung) was > 100 µM and the TGI (EKVX NSCLC) was > 100 µM. For the same compound, the TGI (DU-145 prostate) was > 100 µM, the TGI (IGROV1 ovarian) was > 100 µM and the TGI (OVCAR-4 ovarian) was > 100 µM.

`Nc1ccccc1C(=O)CCc1c[nH]c2ccccc12` was tested, and the TGI (HCC-2998 colon) was > 100 µM, the TGI (OVCAR-3 ovarian) was > 100 µM and the TGI (A498 renal) was > 100 µM. For the same compound, the TGI (HCT-116 colon) was > 100 µM, the TGI (SK-MEL-2 melanoma) was > 100 µM and the TGI (M14 melanoma) was > 100 µM. For the same compound, the TGI (T-47D breast) was > 100 µM, the TGI (OVCAR-5 ovarian) was > 100 µM and the TGI (OVCAR-8 ovarian) was > 100 µM. For the same compound, the TGI (HT29 colon) was > 100 µM, the TGI (SF-268 CNS) was > 100 µM and the TGI (UO-31 renal) was > 100 µM. The TGI (SK-MEL-28 melanoma) was > 100 µM, the TGI (UACC-257 melanoma) was > 100 µM and the TGI (SF-539 CNS) was > 100 µM. For the same compound, the TGI (A549 NSCLC) was > 100 µM, the TGI (SNB-19 CNS) was > 100 µM and the TGI (ACHN renal) was > 100 µM. For the same compound, the TGI (LOX IMVI melanoma) was > 100 µM, the TGI (SR leukemia) was > 100 µM and the TGI (NCI-H226 lung) was > 100 µM. The TGI (786-0 renal) was > 100 µM, the TGI (HL-60(TB) leukemia) was > 100 µM and the TGI (U251 CNS) was > 100 µM. For the same compound, the TGI (MDA-N) was > 100 µM, the TGI (SN12C renal) was > 100 µM and the TGI (BT-549 breast) was > 100 µM. For the same compound, the TGI (MDA-MB-435) was > 100 µM, the TGI (SF-295 CNS) was > 100 µM and the TGI (K-562 leukemia) was > 100 µM. The TGI (NCI-H522 lung) was > 100 µM, the TGI (SNB-75 CNS) was > 100 µM and the TGI (MCF7 breast) was > 100 µM. The TGI (MDA-MB-231 breast) was > 100 µM, the TGI (HS 578T breast) was > 100 µM and the TGI (TK-10 renal) was > 100 µM. The TGI (NCI/ADR-RES ovarian) was > 100 µM, the TGI (HOP-62 NSCLC) was > 100 µM and the TGI (SK-OV-3 ovarian) was > 100 µM. For the same compound, the TGI (HCT-15 colon) was > 100 µM, the TGI (MALME-3M melanoma) was > 100 µM and the TGI (RPMI-8226 leukemia) was > 100 µM. For the same compound, the TGI (HOP-92 NSCLC) was 55.2 µM, the TGI (SW-620 colon) was > 100 µM and the TGI (PC-3 prostate) was > 100 µM. For the same compound, the TGI (KM12 colon) was > 100 µM, the TGI (MOLT-4 leukemia) was > 100 µM and the TGI (NCI-H460 lung) was > 100 µM. The TGI (EKVX NSCLC) was > 100 µM, the TGI (DU-145 prostate) was > 100 µM and the TGI (IGROV1 ovarian) was > 100 µM. The TGI (OVCAR-4 ovarian) was > 100 µM and the TGI (UACC-62 melanoma) was > 100 µM.

In the case of `CCN(CC)CCn1c(=O)c2ccccc2n2c3c(=O)n(C)c(=O)n(C)c3nc12`, the TGI (HCC-2998 colon) is reported as 6.8 µM, the TGI (OVCAR-3 ovarian) is reported as 16.4 µM and the TGI (HCT-116 colon) is reported as 8.71 µM. The TGI (COLO 205 colon) was 14.5 µM, the TGI (SK-MEL-2 melanoma) was 6.61 µM and the TGI (M14 melanoma) was 13 µM. For the same compound, the TGI (T-47D breast) was 20.8 µM, the TGI (OVCAR-5 ovarian) was 7.09 µM and the TGI (OVCAR-8 ovarian) was 8.06 µM. The TGI (HT29 colon) was 9.55 µM, the TGI (SF-268 CNS) was 12.1 µM and the TGI (UO-31 renal) was 6.29 µM. The TGI (SK-MEL-28 melanoma) was 18.3 µM, the TGI (UACC-257 melanoma) was 16.7 µM and the TGI (SF-539 CNS) was 2.95 µM. The TGI (A549 NSCLC) was 2.05 µM, the TGI (SNB-19 CNS) was 38.1 µM and the TGI (ACHN renal) was 1.09 µM. It also gave a TGI (LOX IMVI melanoma) of 31.3 µM, a TGI (SR leukemia) of 5.15 µM and a TGI (NCI-H226 lung) of 3.35 µM. For the same compound, the TGI (786-0 renal) was 5.43 µM, the TGI (RXF 393 renal) was 34.4 µM and the TGI (HL-60(TB) leukemia) was 2.5 µM. The TGI (U251 CNS) was 6.03 µM, the TGI (MDA-N) was 17.6 µM and the TGI (SN12C renal) was 10.2 µM. The TGI (BT-549 breast) was 4.22 µM, the TGI (MDA-MB-435) was 15.9 µM and the TGI (SF-295 CNS) was 10.1 µM. It also gave a TGI (K-562 leukemia) of 19.4 µM, a TGI (NCI-H522 lung) of 9 µM and a TGI (SNB-75 CNS) of 7.46 µM. For the same compound, the TGI (MCF7 breast) was 6.2 µM, the TGI (MDA-MB-231 breast) was 19.3 µM and the TGI (HS 578T breast) was 19.6 µM. For the same compound, the TGI (TK-10 renal) was 52.5 µM, the TGI (NCI-H23 lung) was 10.1 µM and the TGI (NCI/ADR-RES ovarian) was 30.2 µM. It also gave a TGI (CAKI-1 renal) of 3.91 µM, a TGI (HOP-62 NSCLC) of 4.62 µM and a TGI (SK-OV-3 ovarian) of 4.77 µM. The TGI (HCT-15 colon) was 66.2 µM, the TGI (MALME-3M melanoma) was 10.6 µM and the TGI (RPMI-8226 leukemia) was 5.94 µM. The TGI (HOP-92 NSCLC) was 7.85 µM, the TGI (CCRF-CEM leukemia) was 13.1 µM and the TGI (SW-620 colon) was 16.1 µM. It also gave a TGI (PC-3 prostate) of 20.4 µM, a TGI (SK-MEL-5 melanoma) of 2.94 µM and a TGI (KM12 colon) of 6.03 µM. It also gave a TGI (MOLT-4 leukemia) of 4.73 µM, a TGI (NCI-H460 lung) of 1.65 µM and a TGI (EKVX NSCLC) of 11.7 µM. The TGI (DU-145 prostate) was 4.47 µM, the TGI (IGROV1 ovarian) was 23.3 µM and the TGI (OVCAR-4 ovarian) was 23.5 µM. The TGI (UACC-62 melanoma) was 3.22 µM.
